Several values for one entry are separate records, joined by “and”; a condition that tells them apart may be missing. Equal values may be shown once.
Columns and labels:
Type in all cases: cell-based
[1] = system: human dermal fibroblasts (HDFa); test: Gene expression profile of human dermal fibroblasts (microarray, GSEA); settings: 0.05 mg/ml, 24 hours
Description: Adult human dermal fibroblasts (HDFa) were seeded (12.5×10^4 cells/vial T25 cm^2), and were incubated in complete medium 106 for 7 days at 37° C. in an atmosphere with 5% CO2. After the incubation, the cells were treated for 24 hours at 37° C. in an atmosphere with 5% CO2 with 0.05 mg/ml of the compound Ac-L-Asp-L-Val-L-Lys-L-Tyr-OH in complete medium 106 or in complete medium 106 as a negative control. The incubations and the treatments were carried out in duplicate for each condition.
After the treatments, RNA was extracted and purified, the quality and quantity was verified and the marking was carried out as was the hybridization of the samples in a human gene expression microarray (ASurePrint G3, Agilent). […] Next an evaluation of the genes by means of GSEA was carried out to encompass these genes according to their function/biological route. 24 hours after the treatments, the cells were lysed and the RNA was extracted and purified from each replica and each condition by means of the RNeasyPlus Mini kit by Qiagen. The lysed cells were briefly homogenized and the RNases were inactivated. The samples were passed through special RNA binding columns and after several microcentrifugation washes to eliminate contaminants and impurities, the purified RNA was eluted with 50 μl of ultrapure water. The purity, integrity and concentration of the RNA obtained were evaluated by means of spectrophotometry (Nanodrop) and with a bioanalyzer (Agilent Bioanalyzer).
The normalized values obtained with the treatment were compared with the normalized values obtained with the negative control to obtain genes with differential expression. […] The values obtained are also evaluated by means of GSEA (Gene Set Analysis Enrichment) to group together the genes with differential expression in terms of Gene Ontology and Biological Routes and the sets of genes with an expected proportion of incorrectly rejected null hypotheses were selected as significant (FDR) <25%. The results obtained are shown below in three different tables in which different families of genes are grouped together (collagen genes, genes involved in collagen synthesis and genes involved in cell adhesion).

[2] = system: LOXL1; test: Immunofluorescence of LOXL1 protein expression in human dermal fibroblasts; settings: 0.5 mg/mL, 48 hours, HDFa
Description: (§1) In this experiment the number of times that the expression of the proteins fibulin-5 and LOXL1 in human dermal fibroblasts is increased with regard to the basal levels in untreated cells (negative control) when treating the cells with 0.5 mg/ml of the product Ac-L-Asp-L-Val-L-Lys-L-Tyr-OH and it is compared with the effect of Interleukin-1β (IL-1β) at 20 ng/ml and TGF-β at 5 ng/ml (positive controls), which increase an average of 1.5 times and 2 times, respectively, the expression of these proteins, in the same conditions.
Adult human dermal fibroblasts were seeded (HDFa) (2.5×10^3 cells/well) in a 96-well transparent plate, treated with polylysine, and were incubated in complete medium 106 for 72 hours at 37° C. in an atmosphere with 5% CO2. After the incubation, the cells were treated with the different compounds in complete medium 106 for 48 hours at 37° C. in an atmosphere with 5% CO2. As positive controls of increase of the expression of the proteins fibulin-5 and LOXL1, 5 ng/ml of TGF-β and 20 ng/ml of IL-1β were used and as a negative control untreated cells were used, just with complete medium 106. The incubations and the treatments were carried out in quadruplicate for each condition. After the treatment, the levels of expression of both proteins were quantified relatively by using specific fluorescent antibodies, photographic recording by microscopy and subsequent quantification of the fluorescent signal using image processing software, the number of total cells by fluorescent staining of the nuclei (DAPI) and subsequent quantification in the same images. […] 16 hours later all the samples were stained with DAPI (4′,6-Diamidino-2-Phenylindole), fluorescent marker for the staining of nuclei, and the photographic recording was carried out by fluorescence microscopy in a Leica microscope. 2-4 images were taken per condition and per protein and the fluorescent signals were quantified (IOD) corresponding to each protein and the nuclei by means of image analysis software. […]

[3] = system: fibulin-5; test: Immunofluorescence of fibulin-5 protein expression in human dermal fibroblasts; settings: 0.5 mg/mL, 48 hours, HDFa
Description: as §1
Adult human dermal fibroblasts were seeded (HDFa) (2.5×10^3 cells/well) in a 96-well transparent plate, treated with polylysine, and were incubated in complete medium 106 for 72 hours at 37° C. in an atmosphere with 5% CO2. After the incubation, the cells were treated with the different compounds in complete medium 106 for 48 hours at 37° C. in an atmosphere with 5% CO2. As positive controls of increase of the expression of the proteins fibulin-5 and LOXL1, 5 ng/ml of TGF-β and 20 ng/ml of IL-1β were used and as a negative control untreated cells were used, just with complete medium 106. The incubations and the treatments were carried out in quadruplicate for each condition. After the treatment, the levels of expression of both proteins were quantified relatively by using specific fluorescent antibodies, photographic recording by microscopy and subsequent quantification of the fluorescent signal using image processing software, the number of total cells by fluorescent staining of the nuclei (DAPI) and subsequent quantification in the same images. For the determination of the expression of the proteins fibulin-5 and LOXL1 the cells were washed with PBS 48 hours after the treatments and were fixed with paraformaldehyde. Next, duplicates of each treatment were used to mark separately the fibulin-5 and LOXL1 proteins. For each of the proteins a specific primary monoclonal antibody was used (Abcam). After the primary incubation, the cells were washed with PBS and the secondary marking was carried out with specific fluorescent polyclonal antibodies for each primary antibody. For fibulin-5 an Alexa Fluor® 594 (red) secondary antibody was used and for LOXL1 an Alexa Fluor® 488 (green) secondary antibody was used. 16 hours later all the samples were stained with DAPI (4′,6-Diamidino-2-Phenylindole), fluorescent marker for the staining of nuclei, and the photographic recording was carried out by fluorescence microscopy in a Leica microscope. 2-4 images were taken per condition and per protein and the fluorescent signals were quantified (IOD) corresponding to each protein and the nuclei by means of image analysis software. The fibulin-5 and LOXL1 signals were normalized according to the number of total nuclei for each image. 3 independent assays were carried out.

## Ac-L-Asp-L-Val-L-Lys-L-Tyr-OH (Ac-DVKY-OH)
[1]; ACTN1 (Actinin, alpha 1)
  % Expression induction: 27.4%
[1]; CAPNS1 (Calpain, small subunit 1)
  % Expression induction: 22.1%
[1]; CAPNS2 (Calpain, small subunit 2)
  % Expression induction: 17.9%
[1]; COL1A2 (Collagen, type-I, alpha 2)
  % Expression induction: 31.1%
[1]; COL4A1 (Collagen, type-IV, alpha 1)
  % Expression induction: 18.9%
[1]; COL4A2 (Collagen, type-IV, alpha 2)
  % Expression induction: 8.3%
[1]; COL6A2 (Collagen, type-VI, alpha 2)
  % Expression induction: 16.0%
[1]; COL6A3 (Collagen, type-VI, alpha 3)
  % Expression induction: 18.6%
[1]; COL11A1 (Collagen, type-XI, alpha 1)
  % Expression induction: 7.2%
[1]; COL14A1 (Collagen, type-XIV, alpha 1)
  % Expression induction: 36.1%
[1]; COL22A1 (Collagen, type-XXII, alpha 1)
  % Expression induction: 7.7%
[1]; COL27A1 (Collagen, type-XXVII, alpha 1)
  % Expression induction: 14.2%
[1]; GSN (Gelsolin)
  % Expression induction: 30.1%
[1]; ITGB1 (Integrin, beta 1)
  % Expression induction: 33.0%
[1]; PCOLCE (Procollagen C-endopeptidase enhancer)
  % Expression induction: 22.4%
[1]; PFN1 (Profilin 1)
  % Expression induction: 36.8%
[1]; PLOD3 (Procollagen-lysine, 2-oxoglutarate 5-dioxygenase 3)
  % Expression induction: 20.7%
[1]; ROCK1 (Rho-associated, coiled-coil containing protein kinase 1)
  % Expression induction: 22.7%
[1]; SERPINH1 (heat shock protein 47)
  % Expression induction: 25.3%
[1]; TLN1 (Talin 1)
  % Expression induction: 27.5%
[1]; VCL (Vinculin)
  % Expression induction: 4.2%
[1]; ZYX (Zyxin)
  % Expression induction: 35.7%
[2]
  Increase in the expression of the protein LOXL1 with regard to the negative control: 73% and 72.71%
[3]
  Increase in the expression of the protein fibulin-5 with regard to the negative control: 134% and 133.90%
